Experimental findings from patent publication US5686486A, “4-hydroxy-benzopyran-2-ones and 4-hydroxy-cycloalkyl[b]pyran-2-ones useful to treat retroviral infections” (priority 1995, dated 1997) are described below.

Values joined by “and” are separate entries in the source; they are usually repeats but may differ in a detail not shown here. Equal entries are not always repeated. Where two headings read alike, the source gives them in different places.

For experiment [1], the target named is T1, HIV-1 protease (Human immunodeficiency virus type 1 group M subtype B, UniProt P04585). The experiment is described as follows: biochemical. The conditions noted are these: for inhibition at 0.123 µM: read-out: HIV-1 Protease % Inhib, dose 0.123 uM; for inhibition at 0.37 µM: read-out: HIV-1 Protease % Inhib, dose 0.370 uM; for inhibition at 1.1 µM: read-out: HIV-1 Protease % Inhib, dose 1.100 uM; for inhibition at 3.3 µM: read-out: HIV-1 Protease % Inhib, dose 3.300 uM; for inhibition at 10 µM: read-out: HIV-1 Protease % Inhib, dose 10.000 uM; for inhibition at 30 µM: read-out: HIV-1 Protease % Inhib, dose 30.000 uM; for inhibition at 0.41 µM: read-out: HIV-1 Protease % Inhib, dose 0.410 uM; for inhibition at 1.23 µM: read-out: HIV-1 Protease % Inhib, dose 1.230 uM; for inhibition at 3.7 µM: read-out: HIV-1 Protease % Inhib, dose 3.700 uM; for inhibition at 11 µM: read-out: HIV-1 Protease % Inhib, dose 11.000 uM; for inhibition at 33 µM: read-out: HIV-1 Protease % Inhib, dose 33.000 uM; for inhibition at 100 µM: read-out: HIV-1 Protease % Inhib, dose 100.000 uM; for inhibition at 1 µM: read-out: HIV-1 Protease % Inhib, dose 1.000 uM. The procedure, abridged: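 Biotinylated, FITC-labeled peptide substrate (20 μl of 0.2 μM) incubated with HIV-1 protease (10 μl of 0.1 μM) and compound in 0.1 M sodium acetate pH 5.5, 1.0 M NaCl, 0.05% NP-40, 1 h, room temperature, dark. Streptavidin beads then capture uncleaved substrate; filtered labeled product read by fluorescence, giving percent inhibition.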

Experiment [2] deals with T1, HIV-1 protease. The experiment in a line: biochemical. The gist of the method: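 Ki from two-fold serial inhibitor dilutions (24–48 concentrations) with 40 nM HIV-1 protease stock and 200 μM substrate stock, 90 min at room temperature; stopped with avidin beads. Reference inhibitor run in parallel; Ki by nonlinear least-squares fit.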

As a reminder, the Ki is the dissociation constant of the complex between target and ligand, obtained from inhibition or displacement. For the molecule `CC(C)CC1CCCCCc2c1oc(=O)c(C(c1ccccc1)C1CC1)c2O` (stereo not shown) [Example 131, 3-(Cyclopropyl-phenyl-methyl)-4-hydroxy-10-isobutyl-5,6,7,8,9,10-hexahydro-cycloocta[b]pyran-2-one], at HIV-1 protease [1], the inhibition at 0.123 µM is 30.7%, the inhibition at 0.37 µM amounted to 74.2%, the inhibition at 1.1 µM was found to be 98.7% and the inhibition at 3.3 µM is 112%. In addition, at HIV-1 protease [1], the inhibition at 10 µM came to 116% and the inhibition at 30 µM is 106%. In addition, on HIV-1 protease [2] (read-out: HIV-1 FITC KI), the Ki turned out to be 30 nM.

As to `CC(C)CCC1CCCCCc2c1oc(=O)c(C(c1ccccc1)C1CC1)c2O` (stereo not shown) [Example 132, 3-(Cyclopropyl-phenylmethyl)-4-hydroxy-10-(3-methyl-butyl)-5,6,7,8,9,10-hexahydro-cycloocta[b]pyran-2-one], on HIV-1 protease [1], the inhibition at 0.37 µM was determined as 39.5%, the inhibition at 1.1 µM was found to be 76.2%, the inhibition at 3.3 µM amounted to 98.1% and the inhibition at 10 µM stood at 104%. In addition, the inhibition at 30 µM on HIV-1 protease [1] turned out to be 103%. The inhibition constant Ki on HIV-1 protease [2] (read-out: HIV-1 FITC KI) was found to be 50 nM.

Take `O=c1oc2c(c(O)c1C(c1ccccc1)C1CC1)CCCCCC2CC1CCOC1` (stereo not shown) [Example 133, 3-(Cyclopropyl-phenyl-methyl)-4-hydroxy-10-(tetrahydro-furan-3-ylmethyl)-5,6,7,8,9,10-hexahydro-cycloocta[b]pyran-2-one]: at HIV-1 protease [1], the inhibition at 0.123 µM was determined as 19.1%, the inhibition at 0.37 µM was determined as 71.2%, the inhibition at 1.1 µM turned out to be 97.9% and the inhibition at 3.3 µM was 101%. On HIV-1 protease [1], the inhibition at 10 µM stood at 101% and the inhibition at 30 µM came out at 99.5%. Moreover, the Ki at HIV-1 protease [2] (read-out: HIV-1 FITC KI) was determined as 12 nM.

Turning to `CCC(O)C1CCCCCc2c1oc(=O)c(C(c1ccccc1)C1CC1)c2O` (stereo not shown) [Example 134, 3-(Cyclopropyl-phenyl-methyl)-4-hydroxy-10-(1-hydroxy-propyl)-5,6,7,8,9,10-hexahydro-cycloocta[b]pyran-2-one], at HIV-1 protease [1], the inhibition at 0.123 µM is 54%, the inhibition at 0.37 µM stood at 97.7%, the inhibition at 1.1 µM was 104% and the inhibition at 3.3 µM was found to be 111%. At HIV-1 protease [1], the inhibition at 10 µM came to 111% and the inhibition at 30 µM amounted to 109%. For the same molecule, the Ki on HIV-1 protease [2] (read-out: HIV-1 FITC KI) worked out at 15 nM.

As for `C=CCCC1CCCCc2c1oc(=O)c(C(c1ccccc1)C1CC1)c2O` (stereo not shown) [Example 135, 9-But-3-enyl-3-(cyclopropyl-phenyl-methyl)4-hydroxy-6,7,8,9-tetrahydro-5H-cyclohepta[b]pyran-2-one], at HIV-1 protease [1], the inhibition at 0.41 µM is 87.1%, the inhibition at 1.23 µM was 92.5%, the inhibition at 3.7 µM was found to be 96.7% and the inhibition at 11 µM worked out at 82.4%. At HIV-1 protease [1], the inhibition at 33 µM was found to be 71.2% and the inhibition at 100 µM came out at 63.6%. Moreover, the Ki at HIV-1 protease [2] (read-out: HIV-1 FITC KI) is 30 nM.

Take `O=c1oc2c(c(O)c1C(Cc1ccccc1)Cc1ccccc1)CCCCCC2` [Example 136, 3-(1-Benzyl-2-phenyl-ethyl)-4-hydroxy-5,6,7,8,9,10-hexahydro-cycloocta[b]pyran-2-one]: on HIV-1 protease [1], the inhibition at 0.41 µM turned out to be 56.6%, the inhibition at 1.23 µM amounted to 80.1%, the inhibition at 3.7 µM was determined as 90.1% and the inhibition at 11 µM is 92.4%. Besides, on HIV-1 protease [1], the inhibition at 33 µM turned out to be 91.6% and the inhibition at 100 µM was 103%. In addition, on HIV-1 protease [2] (read-out: HIV-1 FITC KI), the Ki came to 108 nM.

`C=CS(=O)(=O)Nc1cccc(C(CC)c2c(O)c3ccccc3oc2=O)c1` (stereo not shown) [Example 137, Ethenesulfonic acid (3-(1-(4-hydroxy-2-oxo-2H-chromen-3-yl)-propyl)-phenyl)-amide]: on HIV-1 protease [1], the inhibition at 1 µM amounted to 11.3%, the inhibition at 10 µM came out at 62.9% and the inhibition at 100 µM was 89.1%. Further, the Ki at HIV-1 protease [2] (HIV-1 FITC KI) is 1750 nM and 2200 nM.

Take `CCC(c1cccc(NS(=O)(=O)CC)c1)c1c(O)c2ccccc2oc1=O` (stereo not shown) [Example 138, Ethanesulfonic acid (3-(1-(4-hydroxy-2-oxo-2H-chromen-3-yl)-propyl)-phenyl)-amide]: at HIV-1 protease [1], the inhibition at 1 µM came to 11.9%, the inhibition at 10 µM stood at 64.5% and the inhibition at 100 µM was found to be 99.3%. At HIV-1 protease [2] (HIV-1 FITC KI), this molecule came in with a Ki of 2350 nM.
